PMC11714206, “Massively Parallel Screening of Toll/Interleukin‐1 Receptor (TIR)‐Derived Peptides Reveals Multiple Toll‐Like Receptors (TLRs)‐Targeting Immunomodulatory Peptides” (Advanced Science, 2024)
Each block holds one sequence with its values, some of them ahead of it.

Molecular target: T1, MyD88^TIR (Homo sapiens, UniProt Q99836)
T1 construct: MyD88 (residues 148–296); 6xHis; made in house; host or cells: E. coli BL21 (DE3)
Assay: T‐Surf phage library (P8 and P3) selection against MyD88^TIR, four rounds, NGS read counts
Assay type: binding
Details: for Population: 4th round of selection against MyD88 TIR, share of NGS reads; for P3_MyD88 Rank (after) / P3_MyD88 Rank (before): P3 library; for P8_MyD88 Rank (after) / P8_MyD88 Rank (before): P8 library
Summary of the method: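 Library of 190 946 TIR‐derived peptides on P8 or P3 was panned on immobilized TIR domain coated at 5 µg mL^−1, BSA‐blocked, 1 h binding at RT, PBS/0.5% Tween‐20 washes, HCl elution, TG1 amplification. Fourth‐round pools were PCR‐barcoded, sequenced (100 bp paired‐end, Phred ≥30), and peptides ranked by read counts.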

[1] = P8_MyD88: rank by count after grouping
[2] = P8_MyD88: rank by count before grouping
[3] = P3_MyD88 pool: P3 T-Surf phage library
[4] = 4R selection against MyD88, rank after grouping
[5] = 4R selection against MyD88, rank before grouping
[6] = selection against MyD88, rank after grouping
[7] = selection against MyD88, rank before grouping
[8] = selection against MyD88 TIR, rank by count after grouping
[9] = selection against MyD88 TIR, rank by count before grouping
[10] = P3_MyD88: rank by count after grouping
[11] = P3_MyD88: rank by count before grouping
[12] = selection against MyD88, rank by count after grouping
[13] = selection against MyD88, rank by count before grouping
[14] = P8_MyD88: rank by NGS read count after grouping
[15] = P8_MyD88: rank by NGS read count before grouping

T1 sequence (Q99836 148-296): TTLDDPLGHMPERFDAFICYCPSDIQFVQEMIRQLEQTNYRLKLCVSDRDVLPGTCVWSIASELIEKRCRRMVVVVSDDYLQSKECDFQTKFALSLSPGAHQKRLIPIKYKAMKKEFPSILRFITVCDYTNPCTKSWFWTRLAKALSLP

Sequence: DPQDLDWFFERLVSLL
Rank (after) [1]: 117 | Rank (before) [2]: 707

Sequence: SSFREGLLRLLELSKK
Population [3]: 0.0032%

Sequence: DWVWDYLLLSVFQTIFARRTE
Rank (after) [1]: 425 | Rank (before) [2]: 1033

Sequence: AVDKETDKIQTPLEM
Rank (after) [10]: 115 | Rank (before) [11]: 601

Sequence: YTELTSSGFHTFRDND
P3_MyD88 Rank (after) [8]: 198 | P3_MyD88 Rank (before) [9]: 1713

Sequence: RKGDLISDELRIPLEE
P3_MyD88 Rank (after) [6]: 526 | P3_MyD88 Rank (before) [7]: 2656

Sequence: SSRWALDELVQILHARELF
Rank (after) [14]: 887 | Rank (before) [15]: 3809

Sequence: EWIREQLRPALKAQ
Rank (after) [10]: 147 | Rank (before) [11]: 651

Sequence: YAFTGHLHRYLVLRGA
P3_MyD88 Rank (after) [4]: 630 | P3_MyD88 Rank (before) [5]: 1502

Sequence: SSLREGLWPLLELSKK
Rank (after) [10]: 94 | Rank (before) [11]: 1214

Sequence: DHHLDLPRGKAIKE
P3_MyD88 Rank (after) [6]: 550 | P3_MyD88 Rank (before) [7]: 2017

Sequence: FAANPLSFHVRVKLGG
P8_MyD88 Rank (after) [6]: 501 | P8_MyD88 Rank (before) [7]: 1303

Sequence: NELLHVWSSKANSLEG
P3_MyD88 Rank (after) [4]: 648 | P3_MyD88 Rank (before) [5]: 3394

Sequence: SSFRECLWRLEELSKK
Rank (after) [10]: 457 | Rank (before) [11]: 3136

Sequence: DPQDLDCFDERLGSRV
P8_MyD88 Rank (after) [4]: 627 | P8_MyD88 Rank (before) [5]: 2697

Sequence: PNLRTKVLNYLMRTKT
P8_MyD88 Rank (after) [12]: 705 | P8_MyD88 Rank (before) [13]: 3508

Sequence: NDSLFWDRLLYSLHVTE
Rank (after) [1]: 187 | Rank (before) [2]: 270

Sequence: SSFRERLWRPVALSKK
P3_MyD88 Rank (after) [6]: 493 | P3_MyD88 Rank (before) [7]: 3227

Sequence: YTALTNRAFIPFVIM
P3_MyD88 Rank (after) [4]: 590 | P3_MyD88 Rank (before) [5]: 1658

Sequence: VSHLIDAFERYGIMFFIDT
P8_MyD88 Rank (after) [6]: 572 | P8_MyD88 Rank (before) [7]: 2260

Sequence: ENYAFSSWALGELLHI
P8_MyD88 Rank (after) [8]: 192 | P8_MyD88 Rank (before) [9]: 247

Sequence: GPQELEWCYERLVTKF
P8_MyD88 Rank (after) [4]: 604 | P8_MyD88 Rank (before) [5]: 2278

Sequence: YAASPWWFDDIQQIQLFWD
P8_MyD88 Rank (after) [6]: 543 | P8_MyD88 Rank (before) [7]: 1720

Sequence: SSFREGLSRLPELSKK
P3_MyD88 Rank (after) [4]: 589 | P3_MyD88 Rank (before) [5]: 3207

Sequence: YASYDDNDYYWVTHVLLRFV
P8_MyD88 Rank (after) [8]: 215 | P8_MyD88 Rank (before) [9]: 1788

Second part, the sequence after the results:

P3_MyD88 Rank (after) [4]: 639 | P3_MyD88 Rank (before) [5]: 2171
Sequence: EWIREQRRSALKERLP

P8_MyD88 Rank (after) [4]: 661 | P8_MyD88 Rank (before) [5]: 2961
Sequence: DPQDPDRNYERMVSRL

P3_MyD88 Rank (after) [6]: 543 | P3_MyD88 Rank (before) [7]: 1576
Sequence: YLKWGYRWYWDRLRFA

P8_MyD88 Rank (after) [8]: 228 | P8_MyD88 Rank (before) [9]: 372
Sequence: WVFQTLYSTLEDEYAF

P8_MyD88 Rank (after) [4]: 669 | P8_MyD88 Rank (before) [5]: 3630
Sequence: IDDDHLTYLVRLLYSLHVT

Population (P8_MyD88 pool: P8 T-Surf phage library): 0.00886%
Sequence: DPQDLVWFYERLVSLF

P3_MyD88 Rank (after) [12]: 695 | P3_MyD88 Rank (before) [13]: 2125
Sequence: EWGDPYFWSKLRYAM

Rank (after) [14]: 970 | Rank (before) [15]: 3074
Sequence: DSFFWGRLLYSLHVTE

Rank (after) [14]: 1001 | Rank (before) [15]: 3022
Sequence: DPQLLDWFYVRLVSLL

Rank (after) [10]: 172 | Rank (before) [11]: 912
Sequence: GFLYQAFAREGLWRLLELSKK

P3_MyD88 Rank (after) [4]: 581 | P3_MyD88 Rank (before) [5]: 1523
Sequence: YAFTGHLHRIWCSVA

Rank (after) [1]: 419 | Rank (before) [2]: 1421
Sequence: WALDEVLQILRARELF

P8_MyD88 Rank (after) [4]: 592 | P8_MyD88 Rank (before) [5]: 3655
Sequence: MFGGDPLHDFLDLISL

Rank (after) [1]: 443 | Rank (before) [2]: 2664
Sequence: DPQGLAWFYERLVSLL

P8_MyD88 Rank (after) [8]: 287 | P8_MyD88 Rank (before) [9]: 3472
Sequence: PQDLEWLYERLVRLIL

P3_MyD88 Rank (after) [8]: 281 | P3_MyD88 Rank (before) [9]: 3542
Sequence: NQQRFGGKVDAWKAAL

P8_MyD88 Rank (after) [6]: 521 | P8_MyD88 Rank (before) [7]: 1754
Sequence: YAASPRWLDDLVNIVG

P3_MyD88 Rank (after) [4]: 650 | P3_MyD88 Rank (before) [5]: 2595
Sequence: RISAFHQQLVIALEAQ

Rank (after) [10]: 434 | Rank (before) [11]: 2155
Sequence: EWIREQLRPALKNGW

Rank (after) [14]: 1016 | Rank (before) [15]: 2215
Sequence: VQWADPWFWDKLAYEK

Population [3]: 0.00291%
Sequence: ISFREGLWRLLELSKK

P3_MyD88 Rank (after) [4]: 604 | P3_MyD88 Rank (before) [5]: 3505
Sequence: NQWRNALTAAANLSGEFG

P3_MyD88 Rank (after) [6]: 519 | P3_MyD88 Rank (before) [7]: 2979
Sequence: SENYATSPWALDELLIAIEE

P8_MyD88 Rank (after) [6]: 549 | P8_MyD88 Rank (before) [7]: 2787
Sequence: DPQDLDWFYERLISRILQ

P3_MyD88 Rank (after) [8]: 230 | P3_MyD88 Rank (before) [9]: 2403
Sequence: LNVESWRKALEKAGKL
